According to patent US11564911B2, “Small molecule dual-inhibitors of TRPV4 and TRPA1 for sanitizing and anesthetizing” (Duke University, priority 2016, dated 2023):

What was measured:
[1] = system: trigeminal formalin-evoked pain behavior; conditions: dose-dependent, intradermal injection; cited from earlier work
[2] = system: primary mouse keratinocytes (1° MK); assay: UVB-evoked Ca++ signaling in primary mouse keratinocytes (fluo-4); format: cell-based
Procedure: Ca++ imaging of 1° MK was conducted following routine procedures. For UVB stimulation, a customized device was built. The system comprised a printed circuit board for electrical interconnects and mechanical support and an ultraviolet light-emitting diode (UV LED).
The operating wavelength was 295 nm (FIG. 2A), with a full-width half-max of 12 nm. The optical power was 500 mW. The focal point was aimed at the plane of the upper surface of the quartz coverslip, which was used to minimize UV absorption along the optical path towards the cells (FIG. 2A-C). The optical intensity at the focal point was estimated to be 150 mW/mm^2.
Ca++ imaging of mouse 1° MK in response to chemical activation of TRPV4 was conducted after loading with 2 μM fura2-AM, following a ratiometric Ca2+ imaging protocol with 340/380 nm […] for dual excitation. Ratios of emissions were acquired at 0.5 Hz. ΔR/R0 was determined as the fraction of the increase of a given ratio over baseline ratio, divided by baseline ratio. For stimulation of cells with UVB, where fura-2 was not suitable because of the proximity of stimulation with 340/380 nm and 295 nm, 2 μM fluo4-AM was used instead. Ca++ imaging was carried out at 488 nm excitation, acquisition of emissions at 0.5 Hz, expressed as ΔF/F0. In the custom-built UV optical system, UV LEDs were capped with a ball lens, a transparent optical window in the shape of a hemispherical lens (FIG. 2B). The LED output optical beam focused at 15-20 mm from the lens, with a spot diameter of approximately 1.5-2.0 mm (FIG. 2C). […] The thermal equilibration stage was set for physiological temperature.

[3] = system: mouse paw-pad skin, UVB-photodermatitis; assay: UVB-exposed paw-pad skin after topical GSK205: histopathology and mediators; format: in vivo
Procedure: GSK205 topical treatment: A viscous solution of 68% EtOH/5% glycerol plus 1 mM or 5 mM GSK205 (none for control) was applied to hindpaws by rubbing in 20 μL, applied at time-points 1 hour and again 10 min before UV exposure.
Routine procedures were followed as described previously (Chen et al., 2009). Mice were perfused transcardially with 30 mL PBS, followed by 30 mL 4% paraformaldehyde. Tissues, including the L5 DRGs (bilateral), and footpad preparations, were dissected and post-fixed in 4% paraformaldehyde. Tissue blocks were further cryoprotected in 30% sucrose in PBS for 24-48 hours. For mouse TRPV4, keratin-specific antibodies, phospho-ERK, IL-6, IL-1β, CXCL5 and caspase-1, tissue was prepared as frozen blocks and subsequently sectioned on a cryostat. For CD68, CD15 (neutrophil elastase) and CD3, mouse skin was prepared by 2% PFA perfusion. Footpad and DRG sections (both at 6-10 μm) were thaw-mounted, blocked with 5% normal goat serum (NGS; Jackson), then incubated overnight at 4° C. with the following primary antibodies: rabbit anti-TRPV4 (1:300; Abcam), mouse anti-keratin 14 (1:300; Abcam against C-terminal peptide beyond residue 850); rabbit anti-keratin 14 (1:1000; Fuchs-Lab), rabbit anti-phosph-ERK1/2 (1:500; Cell signaling technologies), goat anti-IL-1β (1:800; Abcam), goat anti-IL-6 (1:200; Santa Cruz Biotechnology Inc); rabbit anti-caspase-1 (1:200; Biovision Research Products, CA); goat anti-mouse LIX/CXCL5 (1:200; R&D Systems Inc), anti-CD68, anti-[…], and anti-CD3 (AbDSerotec). Immunodetection was accomplished with appropriate fluorescently-labeled secondary antibodies (AlexaFluor595, AlexaFluor488-conjugated antibodies at 1:600; Invitrogen; for CD15 biotinylated secondary antibody from donkey, 1:400 followed by rhodamine-streptavidine 1:250), or with peroxidase-linked detection reagents (for CD68) for 2 hours at room-temperature. Sections were rinsed, mounted, and cover-slipped with fluoromount (Sigma). Digital micrographs were obtained using a BX61 Olympus upright microscope, also with a Zeiss LSM510 confocal, both equipped with high-res CCD camera, and acquired with constant exposure settings, using ISEE or Zeiss Zen software. Morphometric analysis was conducted using ImageJ freeware (v1.45) with tailored regions-of-interest that spared the nuclear compartment. ImageJ was also used for determination of DRG surface area.

CN(CCc1ccc(Nc2nc(-c3cccnc3)cs2)cc1)Cc1ccccc1 [GSK205]
trigeminal formalin-evoked pain behavior, earlier study [1]: effective attenuation
UVB-evoked Ca++ signal ([2]; GSK205 20 μM): strongly down-regulated
ET1-augmented UVB-induced Ca++ transients ([2]; co-exposure to ET1): greatly diminished
CXCL5 upregulation in UVB-exposed footpad ([3]; topical 5 mM GSK205): significant blocks
IL-1β upregulation in UVB-exposed mouse skin ([3]; topical 5 mM GSK205): failed to upregulate
IL-6 upregulation in UVB-exposed footpad ([3]; topical 5 mM GSK205): significant blocks
histopathology of UVB-exposed paw skin ([3]; topical 5 mM GSK205): virtual elimination of inflammation
Edn1 mRNA-expression in UVB-exposed paw-pad skin ([3]; topical 5 mM GSK205, 2 h and 24 h): unchanged
